{"source": "patent US20200113902A1", "about": "“COMPOSITIONS AND METHODS FOR TREATING CANCERS WITH COVALENT INHIBITORS OF CYCLIN-DEPENDENT KINASE 7 (CDK7)” (Syros Pharmaceuticals, Inc., priority 2017, published 2020)", "key": {"HCC70 xenografts": {"system": "HCC70 xenografts", "test": "Subcutaneous HCC70 xenograft, tumor volume", "format": "in vivo, mouse", "details": "40 mg/kg i.v. twice weekly (BIW), vehicle: increase in tumor volume", "procedure": "(§1) Subcutaneous HCC70 xenografts were established in BALC/c nude mice at ChemPartner (Shanghai, China). Each mouse was inoculated subcutaneously in the right flank with 5×10^6 HCC70 cells (ATCC, CAT #: CRL-2315) in 0.2 ml of a 1:1 mixture of base medium and Matrigel. Tumor sizes were measured in two dimensions using a caliper, and the volumes were expressed in mm^3 using the formula: V=0.5 a×b^2 where a and b are the longest and shortest diameters of the tumor, respectively. Compound 1 treatment was started when the average tumor size reached 181 mm^3.\nCompound 1 was formulated in w/v 20% Captisol (pH 4-6) and administered by i.v. twice weekly (BIW) at a final dose of 40 mg/kg in a 10 ml/kg volume. Mice in the vehicle arm were given the same dosing schedules, volumes, and formulations, but lacking Compound 1. Tumor volumes were measured twice weekly over the course of the study."}, "HR^+ breast cancer cells": {"system": "HR^+ breast cancer cells", "test": "Inhibition of HR^+ breast cancer cells in vitro (data not shown)", "format": "cell-based", "details": "including cells with acquired resistance to aromatase inhibitors and cells no longer responding to CDK4/6 inhibitors"}, "OV14702 xenograft": {"system": "OV14702 xenograft", "test": "Ovarian PDX OV14702, tumor volume", "format": "in vivo, mouse", "details": "OV14702 (RB1 null); 40 or 30 mg/kg i.v. BIW", "procedure": "Patient-derived xenograft (PDX) models from ovarian carcinoma patients (OV5387, OV14702, OV14972, OV15398, OV15576, OV15696, OV15612, OV15631) were established in NOD-SCID mice at Crown Bioscience (San Diego, USA). Cryo vials containing tumor cells were thawed and prepared for injection into mice. Cells were washed in PBS, counted, and resuspended in cold PBS at a concentration of 50,000-100,000 viable cells/100 ul. Cell suspensions were mixed with an equal volume of Cultrex ECM and kept on ice during transport to the vivarium. Cells were prepared for injections by withdrawing ECM-Cell mixture into a chilled slip-tip syringe fitted with a 26G 7/8 (0.5 mm×22 mm) needle. The filled syringes were kept on ice to avoid the solidification of ECM. Each mouse was inoculated subcutaneously in the right flank with 200 uL of the cell suspension. Tumor sizes were measured in two dimensions using a caliper, and the volumes were expressed in mm3 using the formula: V=0.5 a×b^2 where a and b are the longest and shortest diameters of the tumor, respectively. Compound 1 treatment was started when the average tumor size reached 150-200 mm^3.\nCompound 1 was formulated in w/v 20% Captisol (pH 4-6) and administered by i.v. twice weekly (BIW) at a final dose of 40 mg/kg or 30 mg/kg in a 10 ml/kg volume. Tumor volumes were measured twice weekly over the course of the study. […]"}, "[1]": {"system": "MCL1 protein in HCC70 xenograft tumor", "test": "HCC70 xenograft tumor, Western blot", "format": "in vivo", "details": "HCC70 xenograft mouse; single dose of 40 mg/kg", "procedure": "Cytotoxic cancer cell lines HCC70 and TOV21G, and cytostatic cancer cell lines T47D and COV318 were seeded in wells of a six-well dish at a density of 1×10^6 cells/well and allowed to adhere overnight. Cells were then treated with 50 nM of Compound 1 for 16 or 24 hours, or with DMSO (0 hours) representing a negative control. Cells were harvested and placed on ice, and resuspended in RIPA lysis buffer supplemented with protease and phosphatase inhibitors. Clarified lysates prepared with 4×LSD running buffer and boiled at 95° C. for 5 minutes. Equivalent amounts of sample (10 μg total protein) were run on a 4-12% Bis-Tris gel and transferred to a PDVF membrane for Western blotting using standard Western blotting protocols. Membranes were blocked with Licor TBS blocking buffer then probed with antibodies for BCL-XL, BCL-2, MCL1, BID, and GAPDH visualized using and Odyssey imager (FIGS. 23A and 23D).\nas §1, with “Compound 1 treatment was started when the average tumor size reached 181 mm^3.” left out"}, "[2]": {"system": "gene expression in MDA-MB468 cells", "test": "Gene expression profiling via RNA-seq (DESeq2, linear model), MDA-MB468", "format": "cell-based", "details": "four hours, JQ1 125 nM, Compound 1 25 nM", "procedure": "In addition, we compared the ability of JQ1 alone, Compound 1 alone, and a combination of JQ1 and Compound 1 to modify expression of various genes in two breast cancer cell lines. Two triple-negative breast cancer cell lines (HCC70 and MDA-MB468) were tested. The cell lines were treated with JQ1, Compound 1, the JQ1/Compound 1 combination, or DMSO for four hours, after which gene expression profiling via RNA-seq was performed. JQ1 was administered to the cells at a 125 nM final concentration in both single agent and combination experiments. Compound 1 was administered to the cells at a 25 nM final concentration in both single agent and combination experiments. Each experiment was performed in triplicate. One replicate of MDA-MB-468 treated with single-agent JQ1 was excluded from further analysis due to quality.\nWe employed DESeq2 (Love et al., Genome Biology, 15(12):550, 2014) to identify changes in gene expression due to the JQ1, Compound 1, and JQ1-Compound 1 combination treatment compared to the control DMSO condition based on the RNA-seq data. Genes resulting in a p-value below 0.01 and an absolute logFoldChange above 0.5 were considered to be differentially expressed. […] The same is true for 1459 of 2414 genes in MDA-MB468.\nTo identify the genes whose expression is impacted synergistically by the drug combination, we modeled the effect of each drug treatment on expression using a linear model. The expression of each gene after the combination treatment can be thought of as the combined impact of Compound 1, JQ1, and any synergistic interaction between the drug treatments on baseline gene expression. A linear model used to describe this relationship could therefore be represented as:\nGene Expression after combination treatment=Baseline Expression+Compound 1 effect+JQ1 effect+Combination effect (Synergistic Impact)\nBy fitting the expression data for each gene using this model, we were able to evaluate the effect of each treatment, and identify cases where a synergistic interaction between Compound 1 and JQ1 impacts final gene expression. After fitting the linear model to each gene, the weight and p-value of each term can be evaluated. The combination term's weight signifies the mean change resulting from a synergetic impact on expression, with a negative weight indicating synergistic downregulation. Its associated p-value represents the probability that the combination term is not relevant to final gene expression. Using this approach, we identified 1806 genes in HCC70 and 2205 genes in MDA-MB468 whose expression change in the combination treatment was synergistic and whose associated p-value was less than a threshold cutoff of 0.01. The expression of these synergistic genes could not be explained by an additive effect of Compound 1 and JQ1 alone."}}}
{"molecule": "CN(C)C/C=C/C(=O)Nc1ccc(C(=O)N[C@@]2(C)CCC[C@@H](Nc3ncc(Cl)c(-c4c[nH]c5ccccc45)n3)C2)nc1", "note": "[Compound 1, N-((1S,3R)-3-(5-chloro-4-(1H-indol-3-yl)pyrimidin-2-ylamino)-1-methylcyclohexyl)-5-((E)-4-(dimethylamino)but-2-enamido)picolinamide]", "values": [{"measurement": "Tumor volume", "setting": "HCC70 xenografts", "result": "reduction in tumor volume"}, {"measurement": "Inhibition of HR^+ breast cancer cells in vitro", "setting": "HR^+ breast cancer cells", "result": "inhibits many HR^+ breast cancer cells in vitro"}, {"measurement": "Response to treatment (tumor growth)", "setting": "OV14702 xenograft", "result": "responded"}, {"measurement": "MCL1 protein expression in tumor (Western blot)", "setting": "[1]", "result": "reduced MCL1 protein expression"}, {"measurement": "Average Expression (TPM) FOXC1", "setting": "[2]; DMSO 33.731", "result": 25.556, "unit": "TPM"}, {"measurement": "Average Expression (TPM) GATA3", "setting": "[2]; DMSO 34.244", "result": 21.773, "unit": "TPM"}, {"measurement": "Average Expression (TPM) TGIF1", "setting": "[2]; DMSO 145.88", "result": 134.08, "unit": "TPM"}]}
